According to BindingDB's records for doi:10.1021/jm800503y (University of Queensland, 2008):

Target: T1, Genome polyprotein [1424-1463]/[1502-1685] (West Nile virus, UniProt P06935)
T1 construct: 1424-1463; 1502-1685
T1 sequence (P06935 whole entry) 1: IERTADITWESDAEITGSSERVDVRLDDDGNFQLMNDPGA
T1 sequence (P06935 whole entry) 2: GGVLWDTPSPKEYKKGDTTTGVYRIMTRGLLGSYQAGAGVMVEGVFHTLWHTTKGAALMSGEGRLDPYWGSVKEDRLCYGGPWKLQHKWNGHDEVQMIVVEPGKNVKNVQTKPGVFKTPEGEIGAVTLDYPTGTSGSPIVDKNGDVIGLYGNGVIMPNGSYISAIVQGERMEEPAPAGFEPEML
Assay: In Vitro Enzyme Inhibition
Details: pH 9.5; 37 °C
Procedure: Inhibition of WNV protease activity was measured using recombinant WNV protease, which first incubated with inhibitor in 96-well plates. Catalysis was initiated by adding the substrate. Cleavage of the pNA chromophore from substrate produced a color change monitored at 405 nm. Optical density was measured every 30 s for 10 min by a Spectromax 250 reader, and Ki values were determined by Graphpad Prism.

Structure (SMILES) | IC50 [nM] | Ki [nM]
NCCCC[C@H](NC(=O)C=Cc1ccccc1)C(=O)N[C@@H](CCCCN)C(=O)N[C@H](C=O)CCCN=C(N)N [(2S)-6-amino-2-[(2S)-6-amino-2-[(2E)-3-phenylprop-2-enamido]hexanamido]-N-[(2S)-5-carbamimidamido-1-oxopentan-2-yl]hexanamide] | 580 | 104
COc1ccc2cc([C@H](C)C(=O)N[C@@H](CCCCN)C(=O)N[C@@H](CCCCN)C(=O)N[C@H](C=O)CCCN=C(N)N)ccc2c1 [(2S)-6-amino-N-[(1S)-5-amino-1-{[(2S)-5-carbamimidamido-1-oxopentan-2-yl]carbamoyl}pentyl]-2-[(2S)-2-(6-methoxynaphthalen-2-yl)propanamido]hexanamide] | 112 | 20
